According to the NIST ThermoML archive (doi:10.1021/je7007523):
Where “and” joins values, the source holds several entries; their conditions need not be identical. Identical values can stand only once. ± gives the expanded uncertainty stated by the source.

Details: 313.15 K; Liquid; Ebulliometric method (Recirculating still)

Compound | vapor or sublimation pressure
C=CCCCC [hex-1-ene] | 44.95 ± 0.22 kPa
CCCCCCC [heptane] | 12.33 ± 0.088 kPa and 12.33 ± 0.087 kPa
C1CCCCC1 [cyclohexane] | 24.61 ± 0.14 kPa and 24.62 ± 0.14 kPa
